Measured values published in patent publication US20250332173A1, “COMPOUNDS AND METHODS FOR MODULATING NUCLEIC ACID SPLICING” (REMIX THERAPEUTICS INC., priority 2021, published 2025).
Where a name gives a salt, the structure may show the parent alone. Read-outs that look alike come from different tables or passages of the source.

How the values were obtained:
Assay type in all cases: cell-based, human
HTT = assay: HiBiT protein abundance assay, HTT HiBiT K562 cell line; details: HiBiT K562 cell line, 24 hours, top dose 10 μM; read-out: Effect on protein abundance, HTT (IC50 category)
Outline: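 Tagged-protein abundance measured by split-NanoBiT luminescence after lysis, following 24 h compound exposure (37° C; 10 μM top, 3-fold, 10 points; DMSO ≤0.25%) of HiBiT knock-in K562 cells. Percent response vs DMSO and unmodified-cell controls; 4-parameter logistic interpolation at 50% gave IC50.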

MYB mRNA = assay: RT-qPCR splicing assay, MYB canonical junction (CJ) and alternative junction (AJ) mRNA; details: Homo sapiens; for AC50: increase in MYB alternative junction (AJ) mRNA, read-out: MYB AJ AC50
Outline: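 Splicing switches were read by TaqMan RT-qPCR on lysates, quantifying exon-exon junctions of the canonical and alternative-exon isoforms. Lysates came from K562 (GAPDH/GUSB reference) or A673 (PPIA reference) cells exposed 24 h to compound in 11 threefold steps from 10 uM, with DMSO ≤0.25%.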

Target C = assay: HiBiT protein abundance assay, Target C (Promega Nano-Glo HiBiT Lytic Detection System, knock-in K562 cell line); details: Homo sapiens, K562, 24 h, HiBiT K562 cell line, 24 hours, top dose 10 μM; read-out: Effect on protein abundance, Target C (IC50 category)
Outline: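 Protein abundance was read by Nano-Glo HiBiT lytic luminescence after 24 h compound exposure (10-point, threefold series from 10 μM final) of HiBiT knock-in K562 cells. Parental K562 served as baseline; the 50%-abundance concentration was interpolated from a four-parameter logistic fit.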

[1] = Table 5 panel, canonical junction qPCR, compound concentration having 50% response in CJ decrease, read-out: MYB IC50 (decrease in CJ mRNA levels)
[2] = decrease in MYB canonical junction (CJ) mRNA, RT-qPCR, read-out: MYB CJ IC50

Row | SMILES | IC50 (HTT) [µM] | IC50 (MYB mRNA; [1]) [µM] | IC50 (MYB mRNA; [2]) [µM] | IC50 (Target C) [µM] | AC50 (MYB mRNA; RT-qPCR) [µM]
1 | Cn1cc2c(=O)n(-c3ccc4c(=O)n(C5CCNCC5)ccc4c3)ccc2n1 [Compound 530, 6-{2-methyl-4-oxopyrazolo[4,3-c]pyridin-5-yl}-2-(piperidin-4-yl)isoquinolin-1-one] | > 10 | > 10 | > 10 | > 10 | > 10
2 | Cc1cn2nc(-c3ccc4c(=O)n(C5CCNCC5)ccc4c3)cc(CC(=O)O)c2n1 [Compound 531, 2-[2-methyl-6-[1-oxo-2-(4-piperidyl)-6-isoquinolyl]imidazo[1,2-b]pyridazin-8-yl]acetic acid] | < 0.1 | 0.1 to 1 | 0.1 to 1 | 0.1 to 1 | 0.1 to 1
3 | CNC(=O)Cc1cc(-c2ccc3c(=O)n(C4CCNCC4)ccc3c2)nn2cc(C)nc12 [Compound 534, N-methyl-2-[2-methyl-6-[1-oxo-2-(4-piperidyl)-6-isoquinolyl]imidazo[1,2-b]pyridazin-8-yl]acetamide] | 1 to 10 | 1 to 10 | 1 to 10 | 1 to 10 | 1 to 10
4 | Cc1cn2nc(-c3ccc4c(=O)n(C5CCNCC5)ccc4c3)cc(Cc3nnc[nH]3)c2n1 [Compound 535, 6-[2-methyl-8-(4H-1,2,4-triazol-3-ylmethyl)imidazo[1,2-b]pyridazin-6-yl]-2-(4-piperidyl) isoquinolin-1-one] | 1 to 10 | 1 to 10 | 1 to 10 | 1 to 10 | 1 to 10
5 | CCN1CCC(n2ncc3cc(-c4cc(C)c5nc(C)cn5n4)cc(F)c3c2=O)CC1 [Compound 537] | < 0.1 | 0.1 to 1 | 0.1 to 1 | 0.1 to 1 | 0.1 to 1
6 | Cc1cn2nc(-c3cc(F)c4c(=O)n(C5CCN(CCF)CC5)ncc4c3)cc(C)c2n1 [Compound 538] | < 0.1 | 0.1 to 1 | 0.1 to 1 | 0.1 to 1 | 0.1 to 1
7 | Cc1cn2nc(-c3cc(F)c4c(=O)n(C5CCNCC5)ncc4c3)cc(C)c2n1 [Compound 540] | < 0.1 | < 0.1 | < 0.1 | < 0.1 | < 0.1
8 | Cc1cn2nc(-c3cc(O)c4c(=O)n(C5CCN(C)CC5)ncc4c3)cc(C)c2n1 [Compound 543] | < 0.1 | 0.1 to 1 | 0.1 to 1 | 0.1 to 1 | 0.1 to 1
9 | Cc1cn2nc(-c3ccc4c(=O)n(C5CCNCC5)ccc4c3)cc(Oc3ccccc3F)c2n1 [Compound 544, 6-[8-(2-fluorophenoxy)-2-methyl-imidazo[1,2-b]pyridazin-6-yl]-2-(4-piperidyl) isoquinolin-1-one; hydrochloride] | < 0.1 | 0.1 to 1 | < 0.1 | < 0.1 | 0.1 to 1
10 | Cc1cn2nc(-c3ccc4c(=O)n(C5CCNCC5)ccc4c3)cc(Oc3cccc(F)c3)c2n1 [Compound 545, 6-[8-(3-fluorophenoxy)-2-methyl-imidazo[1,2-b]pyridazin-6-yl]-2-(4-piperidyl)isoquinolin-1-one; hydrochloride] | < 0.1 | < 0.1 | < 0.1 | < 0.1 | < 0.1
11 | Cc1cn2nc(-c3ccc4c(=O)n(C5CCNCC5)ccc4c3)cc(Oc3ccc(F)cc3)c2n1 [Compound 546, 6-[8-(4-fluorophenoxy)-2-methyl-imidazo[1,2-b]pyridazin-6-yl]-2-(4-piperidyl) isoquinolin-1-one; hydrochloride] | < 0.1 | < 0.1 | < 0.1 | < 0.1 | < 0.1
12 | COc1cccc(Oc2cc(-c3ccc4c(=O)n(C5CCNCC5)ccc4c3)nn3cc(C)nc23)c1 [Compound 547, 6-[8-(3-methoxyphenoxy)-2-methyl-imidazo[1,2-b]pyridazin-6-yl]-2-(4 piperidyl) isoquinolin-1-one] | < 0.1 | < 0.1 | < 0.1 | < 0.1 | < 0.1
13 | Cc1cn2nc(-c3cc(F)c4c(=O)n(C5CCNCC5)ncc4c3)cc(Oc3ccccc3)c2n1 [Compound 548, 8-fluoro-6-(2-methyl-8-phenoxy-imidazo[1,2-b]pyridazin-6-yl)-2-(4-piperidyl)phthala-zin-1-one] | < 0.1 | < 0.1 | < 0.1 | < 0.1 | < 0.1
14 | Cc1cn2nc(-c3ccc4c(=O)n(C5CCNCC5)ncc4c3)cc(Oc3ccccc3)c2n1 [Compound 549, 6-(2-methyl-8-phenoxy-imidazo[1,2-b]pyridazin-6-yl)-2-(4-piperidyl) phthalazin-1-one] | < 0.1 | < 0.1 | 0.1 to 1 | < 0.1 | < 0.1
15 | Cc1cn2nc(-c3cc(O)c4c(=O)n(C5CCN(CCF)CC5)ncc4c3)cc(C)c2n1 [Compound 553] | < 0.1 | 0.1 to 1 | 0.1 to 1 | 0.1 to 1 | 0.1 to 1
16 | Cc1nc2c(C)cc(-c3cc(F)c4c(=O)n(C5CCNC6(CC6)C5)ncc4c3)cc2o1 (centres unmarked) [Compound 555] | < 0.1 | 0.1 to 1 | 0.1 to 1 | 0.1 to 1 | 0.1 to 1

More lines, main results first:

Row | IC50 (HTT) [µM] | IC50 (MYB mRNA; [1]) [µM] | IC50 (MYB mRNA; [2]) [µM] | IC50 (Target C) [µM] | SMILES | AC50 (MYB mRNA; RT-qPCR) [µM]
17 | 0.1 to 1 | 1 to 10 | 1 to 10 | 0.1 to 1 | Cc1cn2nc(-c3ccc4c(=O)n(C5CCNCC5)ccc4c3)cc(CC(N)=O)c2n1 [Compound 528, 2-(2-methyl-6-(1-oxo-2-(piperidin-4-yl)-1,2-dihydroisoquinolin-6-yl)imidazo[1,2-b]pyridazin-8-yl) acetamide] | 1 to 10
18 | 0.1 to 1 | 0.1 to 1 | 0.1 to 1 | 0.1 to 1 | CCOC(=O)c1cc(-c2ccc3c(=O)n(C4CCNCC4)ccc3c2)nn2cc(C)nc12 [Compound 529, ethyl 2-methyl-6-[1-oxo-2-(4-piperidyl)-6-isoquinolyl]imidazo[1,2-b]pyridazine-8-carboxylate] | 0.1 to 1
19 | 0.1 to 1 | 0.1 to 1 | 0.1 to 1 | 0.1 to 1 | Cc1cn2nc(-c3ccc4c(=O)n(C5CCNCC5)ccc4c3)cc(CCO)c2n1 [Compound 533, 6-[8-(2-hydroxyethyl)-2-methyl-imidazo[1,2-b]pyridazin-6-yl]-2-(4-piperidyl)isoquinolin-1-one] | 0.1 to 1
20 | > 10 | > 10 | > 10 | > 10 | Cc1cn2nc(-c3ccc4c(=O)n(C5CCNCC5)ccc4c3)cc(Cc3nnn[nH]3)c2n1 [Compound 536, 6-[2-methyl-8-(1H-tetrazol-5-ylmethyl)imidazo[1,2-b]pyridazin-6-yl]-2-(4-piperidyl) isoquinolin-1-one] | > 10
21 | < 0.1 | < 0.1 | < 0.1 | < 0.1 | Cc1cn2nc(-c3cc(F)c4c(=O)n(C5CCN(C)CC5)ncc4c3)cc(C)c2n1 [Compound 539] | < 0.1
22 | < 0.1 | < 0.1 | < 0.1 | < 0.1 | Cc1cn2nc(-c3cc(O)c4c(=O)n(C5CCNCC5)ncc4c3)cc(C)c2n1 [Compound 541] | < 0.1
23 | < 0.1 | < 0.1 | < 0.1 | < 0.1 | CCN1CCC(n2ncc3cc(-c4cc(C)c5nc(C)cn5n4)cc(O)c3c2=O)CC1 [Compound 542] | < 0.1
24 | < 0.1 | < 0.1 | < 0.1 | < 0.1 | Cc1cn2nc(-c3ccc4c(=O)n(C5CCNCC5)ccc4c3)cc(Oc3cccnc3)c2n1 [Compound 550, 6-[2-methyl-8-(3-pyridyloxy)imidazo[1,2-b]pyridazin-6-yl]-2-(4-piperidyl)isoquinolin-1-one] | < 0.1
25 | 0.1 to 1 | 0.1 to 1 | 0.1 to 1 | 0.1 to 1 | Cc1cn2nc(-c3ccc4c(=O)n(C5CCNCC5)ccc4c3)cc(-n3ccc(=O)cc3)c2n1 [Compound 551, 6-[2-methyl-8-(4-oxo-1-pyridyl)imidazo[1,2-b]pyridazin-6-yl]-2-(4-piperidyl)isoquinolin-1-one] | 0.1 to 1
26 | > 10 | > 10 | > 10 | > 10 | Cc1cn2nc(-c3ccc4c(=O)n(C5CCNCC5)ccc4c3)cc(-n3ccccc3=O)c2n1 [Compound 552, 6-[2-methyl-8-(2-oxo-1-pyridyl)imidazo[1,2-b]pyridazin-6-yl]-2-(4-piperidyl)isoquinolin-1-one] | > 10
27 | < 0.1 | 0.1 to 1 | 0.1 to 1 | 0.1 to 1 | Cc1cc(-c2cc(F)c3c(=O)n(C4CCNC5(CC5)C4)ncc3c2)cc2cn(C)nc12 (centres unmarked) [Compound 554] | 0.1 to 1
28 | < 0.1 | 0.1 to 1 | 0.1 to 1 | 0.1 to 1 | Cc1cn2cc(-c3cc(F)c4c(=O)n(C5CCNC6(CC6)C5)ncc4c3)cc(Cl)c2n1 (centres unmarked) [Compound 556] | 0.1 to 1
